From patent publication EP4707392A1, “DOUBLE-STRANDED OLIGONUCLEOTIDE, CONJUGATE THEREOF, AND USE THEREOF” (priority 2023, dated 2024) come the findings set out here.

The first data set deals with coagulation factor XI (Factor XI, FXI) mRNA. In words: In vitro inhibitory activity of siRNA conjugates modified with TOM against FXI mRNA, free uptake by mouse primary hepatocytes (Example 6). The format is cell-based.
Settings: not given
Here is the method:
The inhibitory activities of the siRNA conjugates modified with TOM at different sites of an antisense strand against a target gene FXI in mouse primary hepatocytes were evaluated by the same experimental method as that in Example 4. Differences lie in that the siRNA conjugates modified with TOM at different sites of an antisense strand were used in the present example to replace the siRNA conjugates used in Example 4, and that target gene FXI detection primers listed in Table 13 were used in the present example to replace target gene detection primers used in Example 4. Relative quantitative calculation was performed for the target gene mRNA in various test groups by the preceding ΔΔCt method.
“RZ594004: siRNA conjugate, SEQ ID NOs 341/342 (chain 1 GUACGUGGACUGGAUUCUG; chain 2 CAGAATCCAGTCCACGTACTT; siRNA conjugate, conjugate and pattern not given here)”: the “in vitro activity compared with the reference sequence (RZ594001) without TOM modification” value is “conducive to enhancing in vitro activity”.
Turning to “RZ594005: siRNA conjugate, SEQ ID NOs 343/344 (chain 1 GUACGUGGACUGGAUUCUG; chain 2 CAGAATCCAGTCCACGTACTT; siRNA conjugate, conjugate and pattern not given here)”, the “in vitro activity compared with the reference sequence (RZ594001) without TOM modification” value is listed as “conducive to enhancing in vitro activity”.
On the same count and under the same terms, in the case of “RZ594006: siRNA conjugate, SEQ ID NOs 345/346 (chain 1 GUACGUGGACUGGAUUCUG; chain 2 CAGAATCCAGTCCACGTACTT; siRNA conjugate, conjugate and pattern not given here)” it was “conducive to enhancing in vitro activity”; in that of “RZ594008: siRNA conjugate, SEQ ID NOs 293/294 (chain 1 GUACGUGGACUGGAUUCUG; chain 2 CAGAATCCAGTCCACGTACTT; siRNA conjugate, conjugate and pattern not given here)”, “significantly weakened the in vitro activity”.
The same measure, in the same setting: in the case of “RZ594009: siRNA conjugate, SEQ ID NOs 295/296 (chain 1 GUACGUGGACUGGAUUCUG; chain 2 CAGAATCCAGTCCACGTACTT; siRNA conjugate, conjugate and pattern not given here)” it was “significantly weakened the in vitro activity”; in that of “RZ594011: siRNA conjugate, SEQ ID NOs 299/300 (chain 1 GUACGUGGACUGGAUUCUG; chain 2 CAGAATCCAGTCCACGTACTT; siRNA conjugate, conjugate and pattern not given here)”, “conducive to enhancing in vitro activity”; in that of “RZ594012: siRNA conjugate, SEQ ID NOs 301/302 (chain 1 GUACGUGGACUGGAUUCUG; chain 2 CAGAATCCAGTCCACGTACTT; siRNA conjugate, conjugate and pattern not given here)”, “conducive to enhancing in vitro activity”.
On to “RZ594013: siRNA conjugate, SEQ ID NOs 303/304 (chain 1 GUACGUGGACUGGAUUCUG; chain 2 CAGAATCCAGTCCACGTACTT; siRNA conjugate, conjugate and pattern not given here)”, for which the “in vitro activity compared with the reference sequence (RZ594001) without TOM modification” value was “significantly weakened the in vitro activity”.
For “RZ594014: siRNA conjugate, SEQ ID NOs 305/306 (chain 1 GUACGUGGACUGGAUUCUG; chain 2 CAGAATCCAGTCCACGTACTT; siRNA conjugate, conjugate and pattern not given here)”, the “in vitro activity compared with the reference sequence (RZ594001) without TOM modification” value is “significantly weakened the in vitro activity”.
On to “RZ594015: siRNA conjugate, SEQ ID NOs 307/308 (chain 1 GUACGUGGACUGGAUUCUG; chain 2 CAGAATCCAGTCCACGTACTT; siRNA conjugate, conjugate and pattern not given here)”, for which the “in vitro activity compared with the reference sequence (RZ594001) without TOM modification” value is reported as “significantly weakened the in vitro activity”.
In the case of “RZ594016: siRNA conjugate, SEQ ID NOs 309/310 (chain 1 GUACGUGGACUGGAUUCUG; chain 2 CAGAATCCAGTCCACGTACTT; siRNA conjugate, conjugate and pattern not given here)”, the “in vitro activity compared with the reference sequence (RZ594001) without TOM modification” value is listed as “significantly weakened the in vitro activity”.
Take “RZ594018: siRNA conjugate, SEQ ID NOs 313/314 (chain 1 GUACGUGGACUGGAUUCUG; chain 2 CAGAATCCAGTCCACGTACTT; siRNA conjugate, conjugate and pattern not given here)”: the “in vitro activity compared with the reference sequence (RZ594001) without TOM modification” value is “conducive to enhancing in vitro activity”.
“RZ594019: siRNA conjugate, SEQ ID NOs 315/316 (chain 1 GUACGUGGACUGGAUUCUG; chain 2 CAGAATCCAGTCCACGTACTT; siRNA conjugate, conjugate and pattern not given here)”: the “in vitro activity compared with the reference sequence (RZ594001) without TOM modification” value is “conducive to enhancing in vitro activity”.
Regarding “RZ594024: siRNA conjugate, SEQ ID NOs 325/326 (chain 1 GUACGUGGACUGGAUUCUG; chain 2 CAGAATCCAGTCCACGTACTT; siRNA conjugate, conjugate and pattern not given here)”, the “in vitro activity compared with the reference sequence (RZ594001) without TOM modification” value is “conducive to enhancing in vitro activity”.
For the substance “RZ594025: siRNA conjugate, SEQ ID NOs 327/328 (chain 1 GUACGUGGACUGGAUUCUG; chain 2 CAGAATCCAGTCCACGTACTT; siRNA conjugate, conjugate and pattern not given here)”, the “in vitro activity compared with the reference sequence (RZ594001) without TOM modification” value is “conducive to enhancing in vitro activity”.
Still for that read-out and setting: as for “RZ594030: siRNA conjugate, SEQ ID NOs 347/348 (chain 1 GUACGUGGACUGGAUUCUG; chain 2 CAGAATCCAGTCCACGTACTT; siRNA conjugate, conjugate and pattern not given here)”, the entry is “conducive to enhancing in vitro activity”.
The same measure, in the same setting: in the case of “RZ594035: siRNA conjugate, SEQ ID NOs 357/358 (chain 1 GUACGUGGACUGGAUUCUG; chain 2 CAGAATCCAGTCCACGTACTT; siRNA conjugate, conjugate and pattern not given here)” it was “conducive to enhancing in vitro activity”; in that of “RZ594040: siRNA conjugate, SEQ ID NOs 367/368 (chain 1 GUACGUGGACUGGAUUCUG; chain 2 CAGAATCCAGTCCACGTACTT; siRNA conjugate, conjugate and pattern not given here)”, “conducive to enhancing in vitro activity”.
Regarding “RZ594041: siRNA conjugate, SEQ ID NOs 369/370 (chain 1 GUACGUGGACUGGAUUCUG; chain 2 CAGAATCCAGTCCACGTACTT; siRNA conjugate, conjugate and pattern not given here)”, the “in vitro activity compared with the reference sequence (RZ594001) without TOM modification” value was “conducive to enhancing in vitro activity”.

Another data set concerns CC3 mRNA. The data set can be described thus: Inhibitory activity of siRNAs modified with MOE at different sites against CC3 mRNA in HepG2 cells (Example 8). The format is cell-based, human. As to conditions: MOE at a single site. Here is the method: In vitro activities of siRNA compounds, such as RX502165 modified with MOE at different sites of a sense strand and RX502172 modified with MOE at different sites of an antisense strand, and a reference compound RX502001 without MOE modification on HepG2 cells were evaluated using the same experimental method as that in Example 2. A difference lies in that the siRNA compounds modified with MOE at different sites of the sense and antisense strands were used in the present example to replace the siRNA compounds used in Example 2. Relative quantitative calculation was performed for the target gene mRNA in various test groups by the preceding ΔΔCt method.
“RZ594011: siRNA conjugate, SEQ ID NOs 299/300 (chain 1 GUACGUGGACUGGAUUCUG; chain 2 CAGAATCCAGTCCACGTACTT; siRNA conjugate, conjugate and pattern not given here)”: the “in vitro activity compared with the reference sequence (RX502001) without MOE modification” value was “conducive to elevating the in vitro activity”.
